Measured values from patent US20110244059A1, “INHIBITING OBESITY PROGRESSION BY INHIBITING ADIPOCYTE DIFFERENTIATION WITH A PRE-ADIPOCYTE AUTOPHAGY INHIBITOR” (The University of Medicine and Dentistry of New Jersey, priority 2008, published 2011).
Entries after “also recorded” stand apart in the source; their conditions may differ.

Tests used:
wild type primary MEFs = test: Adipocyte differentiation (adipogenesis) of primary MEFs under standard induction protocol; format: cell-based, mouse
Method: The MEFs were prepared from 13.5 days embryos of atg5+/+ and atg5−/− mice according to standard protocol. Briefly, whole mouse embryos were removed from the uterus, dissected and the head, tail, limbs and all internal organs were removed. The carcasses were minced, washed in PBS, and then incubated in 2 ml 0.05% Trypsin-EDTA (Invitrogen, CA, US) at 37° C. for 20 min with shaking. The digested cells were plated on a 100-mm dish in Dulbecco's modified Eagle's medium (DMEM, Invitrogen) with 10% fetal bovine serum (FCS, Invitrogen) and incubated at 37° C. in humidified air containing 5% CO2. Cells were grown for 24 hr until the culture was 90% confluent, and then split and passed on. The primary MEF cells of passage three to five were treated under standard protocol to induce adipocyte differentiation (Banks, A. S., et al. Deletion of SOCS7 leads to enhanced insulin action and enlarged islets of Langerhans. J. Clin. Invest. September 2005 115, 2462-2471). Briefly, cells were seeded in 6-well plates with cover slips and propagated to confluence. 48 hours later, which was designated as Day 0, differentiation was initiated using Dulbecco's Modified Eagle's Medium (DMEM) containing 10% fetal bovine serum, 5 μg/ml insulin, 1 μM dexamethasone, 0.5 mM 3-Isobutyl-1-methylxanthine (IBMX), and 10 μM troglitazone (Sigma, MO, US). After 2-day initiation, the media was replaced with a maintenance medium (DMEM containing 10% fetal bovine serum, 5 μg/ml insulin, and 10 μM troglitazone). Fresh maintenance medium was replaced every 2 days thereafter. Cells collected at various time points, up to maximal 14 days.
The medium was replaced with maintenance medium including 10 μM CQ two days after initiation. Fresh maintenance medium with 10 μM CQ was replaced every two days thereafter.
Live cells were observed under the Olympus IX70 microscope with relief contrast objectives (10× or 40×). […] For time-lapse microscopy, cells were plated on tissue culture plates and monitored using Olympus IX70 microscope with the 37° C. and 5% CO2 environmental chamber using 10× objectives. Images were collected with CCD video camera (Model MicroMax; Princeton Instruments, Trenton, N.J., US) at 5 min intervals and saved as images stacks using IPLab software (BD Biosciences Bioimaging, Rockville, Md., US). Images were processed using Image J software (NIH, Bethesda, Md., US).
Bodipy: The differentiating cells were stained with BODIPY 493/503 (Invitrogen, CA, US) as described (DiDanato, D. et al. Fixation methods for the study of lipid droplets by immunofluorescence microscopy. J Histochem. Cytochem June 2003 51, 773-780; Gocze, P. M. et al. Factors underlying the variability of lipid droplet fluorescence in MA-10 Lydig tumor cells. Cytometry 17, 151-158.) Briefly, the cell culture slides were washed once with phosphate-buffered saline (PBS), fixed with 3% paraformaldehyde in PBS for 30 minutes at room temperature, and washed 4 times with PBS, and then stained with 10 μg/ml Bodipy 493/503 at room temperature for 15 minutes in darkness, mounted with Vectashield Mounting Medium (Vector Laboratories, CA, US). Oil Red-O: The cells on cover slides were stained with Oil Red-O (Sigma, MO, US) according to Kim et al with some modification (Kim, Y. K., et al. Reversine stimulates adipocyte differentiation and downregulates Akt and p70(s6k) singaling pathways in 3T3-L1 cells. Biochem Biophys Res Commun 358, 553-558). Oil Red-O was dissolved in isopropanol to 3.5 mg/ml. Before using, dilute 6 parts Oil Red-O stock with 4 parts H2O, sit at room temp for 20 min, and filter through 0.2 μm filter. The slides were washed once with PBS, fixed with 4% paraformaldehyde (Fisher Scientific, PA, US) buffered with PBS for 1 hr, and then washed twice with 60% isopropanol for 5 minutes each. Cells were then air dried and stained with Oil Red-O working solution for 30 minutes at 25° C.

| Structure (SMILES) | cytotoxic effect on MEFs (Tunel assay) (wild type MEFs; 10 μM chloroquine for 4 days, FIG. 9D) | lipid accumulation, Bodipy 493/503 staining (wild type primary MEFs; 10 μM chloroquine, 14 days after differentiation induction, FIG. 9B) | lipid accumulation, Oil Red-O staining (spectrometry) (wild type primary MEFs; 10 μM chloroquine, 14 days after differentiation induction, FIG. 9C) | viability of the undifferentiated cells (wild type MEFs) | adipocyte differentiation of primary MEFs (wild type primary MEFs; 1 micro molar hydroxychloroquine, lesser degree than 10 micro molar) | adipocyte differentiation of primary MEFs (wild type primary MEFs; 5 micro molar hydroxychloroquine, lesser degree than 10 micro molar) | adipocyte differentiation of primary MEFs (wild type primary MEFs; 10 micro molar hydroxychloroquine during differentiation induction) | fate of cells that did differentiate (wild type primary MEFs; hydroxychloroquine treatment, 10 micro molar) |
| --- | --- | --- | --- | --- | --- | --- | --- | --- |
| CCN(CC)CCCC(C)Nc1ccnc2cc(Cl)ccc12 (centres unmarked) [chloroquine] | little cytotoxic effect; also recorded: non-toxic | same inhibitory effect | same inhibitory effect |  |  |  |  |  |
| CCN(CCO)CCCC(C)Nc1ccnc2cc(Cl)ccc12 (centres unmarked) [hydroxychloroquine] |  |  |  | not apparently affected | had inhibitory effect on blocking adipocyte differentiation | had inhibitory effect on blocking adipocyte differentiation | stalled at the initial stage of adipocyte differentiation | eventually died |
